Data: ChEMBL document CHEMBL1148536, “Safrole oxide induces apoptosis by activating caspase-3, -8, and -9 in A549 human lung cancer cells” (Bioorg Med Chem Lett, 2006)
Active and inactive are the calls of the source.

What was measured:
Format in all cases: functional, cell-based
[1] = system: A549; test: Effect on caspase 3 activation to initiate apoptosis in A549 human lung cancer cell line
[2] = system: A549; test: Effect on caspase 9 activation to initiate apoptosis in A549 human lung cancer cell line
[3] = target: Caspase-8 (Homo sapiens) (UniProt Q14790); test: Effect on caspase 8 activation to initiate apoptosis in A549 human lung cancer cell line

Measured: Activity

Caspase-8 (Homo sapiens), sequence (Q14790 217-374 limits assumed): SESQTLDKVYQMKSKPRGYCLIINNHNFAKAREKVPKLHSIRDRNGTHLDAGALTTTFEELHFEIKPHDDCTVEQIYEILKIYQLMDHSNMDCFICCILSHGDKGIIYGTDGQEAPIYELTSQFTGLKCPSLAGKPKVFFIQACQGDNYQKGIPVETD
Caspase-8 (Homo sapiens), sequence (Q14790 385-479 limits assumed): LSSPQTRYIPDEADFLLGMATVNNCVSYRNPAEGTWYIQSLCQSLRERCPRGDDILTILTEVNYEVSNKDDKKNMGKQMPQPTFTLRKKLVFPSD

c1cc2c(cc1CC1CO1)OCO2 (stereo not drawn)
active: all assays above
